Test results reported in patent US20240277705A1, “DOSAGE REGIMENS FOR ECUBECTEDIN” (PHARMA MAR S.A., priority 2021, published 2024).

Test system: patients with advanced solid tumors
Test: Phase I dose-escalating study, safety and dose limiting toxicities
Assay type: in vivo
Conditions: for maximum tolerated dose: 3-hour i.v. infusion
Excerpt: Primary Study Objectives • Dose escalation phase: To identify the dose limiting toxicities (DLTs), and to determine the maximum tolerated dose (MTD) and the recommended dose (RD) of PM14 administered intravenously (i.v.) on two days (Day 1 and Day 8) or on Day 1 only, both every three weeks (q3wk) over three hours to patients with advanced solid tumors.
First-in-human, open-label, dose-finding, phase I trial, using a classical 3+3 design followed by a continual reassessment method (CRM) (see Dose Escalation Schedule, below).
Patients will be included in cohorts of a minimum of three or six patients to receive PM14 at successively increasing dose levels, starting at 0.25 mg/m2 for the Days 1 and 8 schedule. For the Day 1 schedule, the starting dose will be 4.5 mg/m^2.
Open-label, dose-escalating, phase I trial of PM14 administered as a 3-hour infusion i.v. every 3 weeks (q3wk) in human patients (pts) with advanced solid tumors, adequate organ function and ECOG PS score of 0-1. Two schedules were explored: Schedule A (Day 1 [D1], Day 8 [D8]) and Schedule B (D1).
Determination of MTD and RD: the MTD will be the lowest dose level explored during dose escalation in which one third or more of evaluable patients develop a DLT in Cycle 1. The CRM could be used to define the RD.
Secondary Endpoints • Safety: patients will be evaluable for safety if they have received at least one partial infusion of PM14. AEs will be graded according to the NCI-CTCAE v.4. Additionally, treatment-related discontinuations and treatment compliance (dose reduction, skipped doses and/or treatment delays due to AEs), will be described. • Pharmacokinetics: PK analyses will be evaluated in plasma and urine by standard non-compartmental analysis (compartmental modeling may be performed if appropriate). Plasma samples for PM14 PK analysis will be obtained in Cycle 1 from all patients, and also in Cycle 2 from patients treated during Step D of the CRM. In addition, the urine produced during Day 1 of Cycle 1 and Cycle 2 will be collected from patients treated during Step D of the CRM. • Pharmacogenetics: the presence or absence of PGt polymorphisms in genes relevant for PM14 disposition (distribution, metabolism and excretion) from a single blood sample collected at any time during the trial (but preferably at the same time as the pre-treatment PK sample on Day 1 of Cycle 1) will be assessed to explain individual variability in main PK parameters. • Pharmacogenomics: this exploratory analysis will be performed in those patients who sign the Informed Consent Form (ICF) for the PGx study. mRNA or protein expression levels of factors involved in DNA repair mechanisms, or related to the mechanism of action of PM14, will be evaluated from available tumor tissue samples obtained at diagnosis or relapse and in cell-free ctDNA. Their mutational status might also be analyzed, if relevant. Their correlation with the clinical response and outcome after treatment will be assessed. • Efficacy: patients will be evaluable for efficacy if they receive at least one complete infusion of PM14 and have at least one clinical or radiological tumor assessment as per RECIST v.1.1 or serum markers, or if they are considered to have failed treatment. Treatment failure will be defined as clinical deterioration, death due to PD or treatment discontinuation due to any treatment-related toxicity before any appropriate tumor assessments have been performed. […]

[1] = Schedule A D1,D8, 3.0 mg/m^2 (n: 9)
[2] = Schedule A D1,D8, <3.0 mg/m^2 (n: 14)
[3] = Schedule A D1,D8, >3.0 mg/m^2 (n: 5)
[4] = Schedule B D1, 4.5 mg/m^2 (n: 6)
[5] = Schedule B D1, 5.6 mg/m^2 (n: 3)

Compound: COc1c(C)cc2c(c1O)[C@@H]1[C@@H]3[C@@H]4SC[C@]5(N[C@H](CO)Cc6c5[nH]c5ccccc65)C(=O)OC[C@@H](c5c6c(c(C)c(OC(C)=O)c54)OCO6)N3[C@@H](O)[C@H](C2)N1C [PM14, ECUBECTEDIN]
- DLTs at the RDs (3.0 mg/n^2 D1,D8 (A) and 4.5 mg/n^2 D1 (B)): No DL-Ts
- maximum tolerated dose (Schedule A (D1, D8 q3wk)): 4.5 mg/m^2
- ALT increase Gr 1-2, (%) [1]: (55.6%)
- ALT increase Gr 3, (%) [1]: (11.1%)
- AST increase Gr 1-2, (%) [1]: (77.8%)
- Anemia Gr 1-2, (%) [1]: (77.8%)
- Anemia Gr 3, (%) [1]: (11.1%)
- CPK increase Gr 1-2, (%) [1]: (22.2%)
- Diarrhoea Gr 1-2, (%) [1]: (11.1%)
- Nausea Gr 1-2, (%) [1]: (11.1%)
- Neutropenia Gr 1-2, (%) [1]: (11.1%)
- Neutropenia Gr 3, (%) [1]: (11.1%)
- Neutropenia Gr 4, (%) [1]: (11.1%)
- Vomiting Gr 1-2, (%) [1]: (11.1%)
- Vomiting Gr 3, (%) [1]: (11.1%)
- ALT increase Gr 1-2, (%) [2]: (35.7%)
- AST increase Gr 1-2, (%) [2]: (21.4%)
- Anemia Gr 1-2, (%) [2]: (85.7%)
- CPK increase Gr 1-2, (%) [2]: (42.9%)
- Constipation Gr 1-2, (%) [2]: (7.1%)
- Decreased appetite Gr 1-2, (%) [2]: (7.1%)
- Diarrhoea Gr 1-2, (%) [2]: (14.3%)
- Fatigue Gr 1-2, (%) [2]: (28.6%)
- Nausea Gr 1-2, (%) [2]: (42.9%)
- Neutropenia Gr 1-2, (%) [2]: (14.3%)
- Vomiting Gr 1-2, (%) [2]: (42.9%)
- ALT increase Gr 1-2, (%) [3]: (60.0%)
- ALT increase Gr 3, (%) [3]: (40.0%)
- AST increase Gr 1-2, (%) [3]: (100.0%)
- Anemia Gr 1-2, (%) [3]: (80.0%)
- Anemia Gr 3, (%) [3]: (20.0%)
- Constipation Gr 1-2, (%) [3]: (60.0%)
- Decreased appetite Gr 1-2, (%) [3]: (40.0%)
- Diarrhoea Gr 1-2, (%) [3]: (20.0%)
- Fatigue Gr 1-2, (%) [3]: (40.0%)
- Fatigue Gr 3, (%) [3]: (20.0%)
- Nausea Gr 1-2, (%) [3]: (80.0%)
- Neutropenia Gr 1-2, (%) [3]: (20.0%)
- Neutropenia Gr 4, (%) [3]: (40.0%)
- Vomiting Gr 1-2, (%) [3]: (60.0%)
- recommended dose (RD) (Schedule A, on D1,D8): 3.0 mg/n^2
- maximum tolerated dose (Schedule B (D1 q3wk)): 5.6 mg/rn^2
- ALT increase Gr 1-2, (%) [4]: (66.7%)
- ALT increase Gr 3, (%) [4]: (33.3%)
- AST increase Gr 1-2, (%) [4]: (50.0%)
- AST increase Gr 4, (%) [4]: (16.1%)
- Anemia Gr 1-2, (%) [4]: (83.3%)
- CPK increase Gr 1-2, (%) [4]: (33.3%)
- Decreased appetite Gr 1-2, (%) [4]: (16.7%)
- Fatigue Gr 1-2, (%) [4]: (50.0%)
- Headache Gr 1-2, (%) [4]: (16.7%)
- Nausea Gr 1-2, (%) [4]: (50.0%)
- Neutropenia Gr 3, (%) [4]: (16.7%)
- Neutropenia Gr 4, (%) [4]: (16.7%)
- Vomiting Gr 1-2, (%) [4]: (16.7%)
- ALT increase Gr 1-2, (%) [5]: (66.7%)
- ALT increase Gr 4, (%) [5]: (33.3%)
- AST increase Gr 1-2, (%) [5]: (33.3%)
- AST increase Gr 4, (%) [5]: (33.3%)
- Anemia Gr 1-2, (%) [5]: (33.3%)
- Anemia Gr 3, (%) [5]: (66.7%)
- CPK increase Gr 1-2, (%) [5]: (66.7%)
- Fatigue Gr 1-2, (%) [5]: (33.3%)
- Febrile neutropenia Gr 4, (%) [5]: (33.3%)
- Neutropenia Gr 1-2, (%) [5]: (33.3%)
- Neutropenia Gr 3, (%) [5]: (33.3%)
- Neutropenia Gr 4, (%) [5]: (33.3%)
- recommended dose (RD) (Schedule B, on D1): 4.5 mg/n^2
- tolerability at the RDs (patients with advanced solid tumors): well tolerated
